Legend:
[1] = Plasma protein binding assay, rat plasma; type: in vitro ADME; conditions: data not shown
[2] = Plasma protein binding assay, dog plasma; type: in vitro ADME; conditions: data not shown
[3] = Plasma total radioactivity pharmacokinetics after single oral 30 mg/kg [14C]-zapnometinib, Sprague-Dawley rats (Group 1); type: in vivo, rat
Description: Oral doses of [^14C]-zapnometinib were administered as a suspension in 5% DMSO (v/v), 30% PEG 400 (v/v) and 7.5% (w/v) Captisol in water at a dose level of 30 mg/kg to male and female rats by gastric intubation at a dose volume of 4 ml/kg body weight. The selected dose level (30 mg/kg) was below the no observed adverse effect level (100 mg/kg), the formulation was selected based on data obtained in other nonclinical studies. The radioactive dose administered to each animal was quantified from the weight (excretion studies only) or volume of dosing formulation given, and its mean measured radioactivity concentration. The weight of test compound administered to each rat was determined from the radioactive dose administered and the specific activity of the test material.
After single oral doses of [^14C]-zapnometinib to three male and three female rats, a blood sample (ca 220 µL) was taken from each animal, via the jugular or tail vein at each of the following time points: 0.25, 0.5, 1, 2, 4, 8, 24, 48, 72, 96, 120 and 168 h after dose administration. All blood samples were delivered into K2EDTA tubes and centrifuged (ca 2000 ×g at 4°C for 10 min) to obtain plasma; blood cells were discarded. After collection of the terminal sample, rats were killed by cervical dislocation and the carcasses discarded.
Radioactivity was measured by liquid scintillation analysis using Wallac® 1409 automatic liquid scintillation counters. Samples were prepared according to the company’s SOP (see Supplementary Methods). Briefly, replicate weighed samples were mixed with Ultima Gold™ scintillation cocktail (PerkinElmer, United States) for the measurement of radioactivity. Radioactivity in amounts less than twice that of the background concentration in the sample under investigation was below the limit of accurate quantification (BLQ).
Weight, volume, and radioactivity concentration (liquid scintillation analysis) results relating to the analysis of biological samples generated during this study were acquired and processed using DEBRA, a Laboratory Information Management System (v 5.5.4). Pharmacokinetic parameters were calculated using the computer program Phoenix™ WinNonlin version 8.3 (Pharsight Corporation, United States). Areas under the mean plasma radioactivity concentration-time curves up to the time of the last quantifiable sample (AUC0-t) were estimated by the linear trapezoidal rule. Areas under the mean plasma radioactivity concentration-time curves to infinite time (AUC0-inf) were calculated using the expression: AUC0-inf = AUC0-t + Ct/λz, where Ct is the last measurable concentration and λz is the elimination rate constant estimated using log-linear regression during the terminal elimination phase. Statistical evaluation was limited to basic expressions of variation such as means and standard deviation.

[4] = QWBA tissue radioactivity, single oral 30 mg/kg, male partially pigmented rats (Group 3); 0.5, 2, 4, 8, 24, 72, 168 h; type: in vivo, rat
Description: The whole-body autoradiography techniques by Ullberg and Larsson was used in this study ([Ullberg and Larsson 1981]). Following a single oral administration of [^14C]-zapnometinib to seven male and seven female partially pigmented rats (Group 3) and four male albino rats (Group 4), one animal per sex (where appropriate) was killed at the following time points post dose: Group 3 (pigmented): 0.5, 2, 4, 8, 24, 72, and 168 h, Group 4 (albino): 2, 24, 72 and 168 h. At sacrifice, each rat was anaesthetized with isoflurane and a blood sample (ca 5 ml) was collected by cardiac puncture into a tube containing K2EDTA anticoagulant. Blood was centrifuged at 2000 ×g for 10 min at 4°C to obtain plasma, which was transferred into plain tubes pending measurement of radioactivity concentration. The blood cells were also retained for analysis.
The rat carcasses were immediately attached to a plate and frozen in a bath of n-heptane and solid CO2 at ca –80°C and then stored at –20 ± 10°C until taken for sectioning. […] [^14C]-Blood standards containing six different known concentrations of radioactivity were used to construct the calibration line for the quantitative determination of tissue concentrations of radioactivity. […] The electronic images of all sections were analyzed at Labcorp–Huntingdon using a validated image analysis package (Seescan Densitometry software, version 2.0). […]

Structure (SMILES): O=C(O)c1ccc(F)c(F)c1Nc1ccc(I)cc1Cl [zapnometinib, 2-(2-Chloro-4-iodophenylamino)-3,4-difluorobenzoic acid]
- Protein binding [1]: high protein binding
- Unbound fraction [1]: very low
- Protein binding [2]: high protein binding
- Unbound fraction [2]: very low
- Mean plasma radioactivity concentration ([3]; 48 h post dose, females): 0.650 μg equivs/ml
- Mean plasma radioactivity concentration ([3]; 48 h post dose, males): 0.724 μg equivs/ml
- Mean plasma radioactivity concentration ([3]; 168 h post dose, females): 0.049 μg equivs/ml
- Mean plasma radioactivity concentration ([3]; 168 h post dose, males): 0.054 μg equivs/ml
- Plasma radioactivity at 168 h as % of Cmax ([3]; females): ~0.04%
- Plasma radioactivity at 168 h as % of Cmax ([3]; males): ~0.06%
- AUC0-t females versus males ([3]; total plasma radioactivity): 1.4 fold
- Cmax females versus males ([3]; total plasma radioactivity): 1.5 fold
- Radioactivity in all remaining tissues ([4]; 2 h, male): ≤ 70.0 μg equivs/g
- Penetration into the brain ([4]; whole body autoradiography): low

Reference: PMC9760738, “Pharmacokinetics, absorption, distribution, metabolism and excretion of the MEK inhibitor zapnometinib in rats” (Frontiers in Pharmacology, 2022)
